{
  "source": "patent US7897778B2",
  "about": "“Benzamide compounds” (AstraZeneca, priority 2004, dated 2011)",
  "key": {"recombinant human HDAC1": {"target": "T1, recombinant human HDAC1 (Homo sapiens, UniProt Q13547)", "T1 construct": "FLAG (C); made in house; host or cells: Hi5 insect cells", "T1 sequence (Q13547 whole entry)": "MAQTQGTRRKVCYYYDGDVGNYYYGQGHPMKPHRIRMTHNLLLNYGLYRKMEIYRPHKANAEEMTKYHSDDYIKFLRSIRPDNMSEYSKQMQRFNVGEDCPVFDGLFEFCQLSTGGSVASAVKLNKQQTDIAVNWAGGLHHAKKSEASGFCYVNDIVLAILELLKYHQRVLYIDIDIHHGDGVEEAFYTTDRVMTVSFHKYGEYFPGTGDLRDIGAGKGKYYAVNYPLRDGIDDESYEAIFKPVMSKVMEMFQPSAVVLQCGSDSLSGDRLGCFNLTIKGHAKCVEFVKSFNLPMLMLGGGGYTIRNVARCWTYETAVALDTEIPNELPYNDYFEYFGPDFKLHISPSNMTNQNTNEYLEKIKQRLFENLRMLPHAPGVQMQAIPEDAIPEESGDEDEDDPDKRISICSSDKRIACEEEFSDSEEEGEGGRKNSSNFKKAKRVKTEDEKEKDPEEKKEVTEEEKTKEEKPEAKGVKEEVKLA", "test": "In vitro enzyme assay of recombinant HDAC1", "assay_type": "biochemical", "conditions": "recombinant human HDAC1 produced in Hi5 insect cells; acetylated histone H4 peptide, Fluor de Lys; read-out: Test (a) IC50", "experimental": "(a) In Vitro Enzyme Assay of recombinant HDAC1\nHDAC inhibitors were screened against recombinant human HDAC1 produced in Hi5 insect cells. The enzyme was cloned with a FLAG tag at the C-terminal of the gene and affinity purified using Anti-FLAG M2 agarose from SIGMA (A2220).\nThe deacetylase assays were carried out in a 50 μl reaction. HDAC1 (75 ng of enzyme) diluted in 15 μl of reaction buffer (25 mM Tris HCl (pH 8), 137 mM NaCl, 2.7 mM KCl, 1 mM MgCl2) was mixed with either buffer alone (10 μl) or buffer containing compound (10 μl) for 30 minutes at ambient temperature. The 25 μM acetylated histone H4 peptide (KI 174 Biomol) diluted in 25 μl of buffer was then added to the reaction and incubated for one hour at ambient temperature. The reaction was stopped by addition of an equal volume (50 μl) Fluor de Lys developer (Biomol) containing Trichostatin A at 2 μM. The reaction was allowed to develop for 30 minutes at ambient temperature and then fluorescence measured at an excitation wavelength of 360 nm and an emission wavelength of 465 nm. The IC50 values for HDAC enzyme inhibitors were determined by performing dose response curves with individual compounds and determining the concentration of inhibitor producing fifty percent decrease in the maximal signal (diluent control)."}, "HCT116 cells": {"tested_on": "HCT116 cells", "test": "In vitro assay of inhibition of proliferation in whole cells (MTS)", "assay_type": "cell-based", "conditions": "Homo sapiens, HCT-116, 72 hours treatment, read-out: Test (b) IC50", "experimental": "(b) In Vitro Assay of Inhibition of Proliferation in Whole Cells\nInhibition of proliferation in whole cells was assayed using the Promega cell titer 96 aqueous proliferation assay (Promega #G5421). The HCT116 cells were seeded in 96 well plates at 1×10^3 cells/well, and allowed to adhere overnight. They were treated with inhibitors for 72 hours. The 20 μl of the tetrazolium dye MTS was added to each well and the plates were reincubated for 3 hours. Absorbance was then measured on a 96 well plate reader at […]. The IC50 values for HDAC inhibitors were determined by performing dose response curves with individual compounds and determining the concentration of inhibitor producing fifty percent decrease in maximal signal (diluent control)."}},
  "data": [
    {"smiles": "C[C@@H]1CC[C@@H](C)N1Cc1cnc(-c2ccc(C(=O)Nc3ccccc3N)cc2)c(C#N)c1", "note": "[2 (12), N-(2-aminophenyl)-4-(3-cyano-5-{[(2R,5R)-2,5-dimethylpyrrolidin-1-yl]methyl}pyridin-2-yl)benzamide]", "values": [
      {"measurement": "IC50", "setting": "recombinant human HDAC1", "value": 6, "unit": "nM"},
      {"measurement": "IC50", "setting": "HCT116 cells", "value": 218, "unit": "nM"}
    ]},
    {"smiles": "CC(C)N(C)Cc1cnc(-c2ccc(C(=O)Nc3ccccc3N)cc2)c(C#N)c1", "note": "[5 (15), N-(2-aminophenyl)-4-(3-cyano-5-{[isopropyl(methyl)amino]methyl}pyridin-2-yl)benzamide]", "values": [
      {"measurement": "IC50", "setting": "recombinant human HDAC1", "value": 12, "unit": "nM"},
      {"measurement": "IC50", "setting": "HCT116 cells", "value": 287, "unit": "nM"}
    ]},
    {"smiles": "N#Cc1cccnc1-c1ccc(C(=O)Nc2ccccc2N)cc1", "note": "[Example 1, N-(2-aminophenyl)-4-(3-cyanopyridin-2-yl)benzamide]", "values": [
      {"measurement": "IC50", "setting": "recombinant human HDAC1", "value": 13, "unit": "nM"},
      {"measurement": "IC50", "setting": "HCT116 cells", "value": 289, "unit": "nM"}
    ]},
    {"smiles": "N#Cc1cc(CN2CCC(c3ccccn3)C2)cnc1-c1ccc(C(=O)Nc2ccccc2N)cc1", "note": "(centres unmarked) [2 (10), N-(2-aminophenyl)-4-{3-cyano-5-[(3-pyridin-2-ylpyrrolidin-1-yl)methyl]pyridin-2-yl}benzamide]", "values": [
      {"measurement": "IC50", "setting": "recombinant human HDAC1", "value": 3, "unit": "nM"},
      {"measurement": "IC50", "setting": "HCT116 cells", "value": 211, "unit": "nM"}
    ]}
  ]
}
